ChEMBL document CHEMBL1201862, “PubChem BioAssay data set” (2004)
Active and inactive are the calls of the source.

What was measured:
[1] = target: Beta-2 adrenergic receptor (Homo sapiens, UniProt P07550); assay: ADRB2 activation measured by internalization – cell-based, FAP fluorogen, flow cytometry, cherry pick 1, dose response (AID 588763); format: functional
[2] = target: Glucose-6-phosphate 1-dehydrogenase (Homo sapiens, UniProt P11413); assay: inhibition of Homo sapiens G6PD, dose series – biochemical, fluorescence, selectivity assay for P. falciparum G6PD inhibitor project, dose response (AID 504792); format: functional
[3] = A cytotoxicity screen of small molecule inhibitors of the PhoP region in Salmonella typhi identified in the primary screen. [Related pubchem assays: 1850, 1864, 1985 ]; format: functional
[4] = target: DNA dC->dU-editing enzyme APOBEC-3G (Homo sapiens, UniProt Q9HC16); assay: Dose Response confirmation of small molecule APOBEC3G DNA Deaminase Inhibitors via a fluorescence-based single-stranded DNA deaminase assay. [Related pubchem assays (depositor defined):AID493012, AID493028]; format: functional
[5] = target: Dual specificity protein kinase CLK1 (Homo sapiens, UniProt P49759); assay: inhibition of human CLK1 activity – biochemical, cherry-picked samples, selectivity assay for Dyrk1A inhibitor project, dose response (AID 588811)
[6] = target: Dual specificity tyrosine-phosphorylation-regulated kinase 1A (Rattus norvegicus, UniProt Q63470); format: biochemical, Homo sapiens
[7] = target: Photoreceptor-specific nuclear receptor (Homo sapiens, UniProt Q9Y5X4); format: functional, cell-based;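 also: CHO-S cells with Gal4-NCOR and VP16-NR2E3 two-hybrid luciferase reporter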
[8] = target: T1, Heat shock factor protein 1 (Mus musculus, UniProt P38532); assay: enhancement of HSF1-driven luciferase signal – cell-based, NIH3T3, luminescence, dose retest, confirmation (AID 435004); format: functional;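 also: stress induced by proteasome inhibitor MG132 added 30 min after compound; luciferase reporter driven by HSF1 response element in NIH3T3 cells; actives raise luminescence as potentiators of the MG132 stress response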
T1 sequence (P38532 whole entry): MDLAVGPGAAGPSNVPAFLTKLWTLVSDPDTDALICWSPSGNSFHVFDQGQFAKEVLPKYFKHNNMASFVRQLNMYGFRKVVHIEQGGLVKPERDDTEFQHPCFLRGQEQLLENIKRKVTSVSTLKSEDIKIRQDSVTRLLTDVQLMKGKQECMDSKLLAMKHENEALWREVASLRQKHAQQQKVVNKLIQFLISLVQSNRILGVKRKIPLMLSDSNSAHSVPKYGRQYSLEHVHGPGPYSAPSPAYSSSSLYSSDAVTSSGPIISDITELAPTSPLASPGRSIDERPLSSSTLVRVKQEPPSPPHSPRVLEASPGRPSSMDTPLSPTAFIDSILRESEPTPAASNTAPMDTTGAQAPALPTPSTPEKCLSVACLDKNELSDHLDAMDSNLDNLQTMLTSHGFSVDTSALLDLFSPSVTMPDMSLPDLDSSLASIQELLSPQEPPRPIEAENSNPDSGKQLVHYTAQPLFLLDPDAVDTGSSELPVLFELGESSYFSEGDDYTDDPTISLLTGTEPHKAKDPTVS

Cytochrome P450 3A4 = Cytochrome P450 3A4 (Homo sapiens, UniProt P08684);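 also: CYP3A4 tested as one member of a cytochrome P450 panel screen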
Cytochrome P450 1A2 = target: T2, Cytochrome P450 1A2 (Homo sapiens, UniProt P05177);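 also: PubChem cytochrome P450 panel assay, CYP1A2 panel member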
T2 sequence (P05177 whole entry): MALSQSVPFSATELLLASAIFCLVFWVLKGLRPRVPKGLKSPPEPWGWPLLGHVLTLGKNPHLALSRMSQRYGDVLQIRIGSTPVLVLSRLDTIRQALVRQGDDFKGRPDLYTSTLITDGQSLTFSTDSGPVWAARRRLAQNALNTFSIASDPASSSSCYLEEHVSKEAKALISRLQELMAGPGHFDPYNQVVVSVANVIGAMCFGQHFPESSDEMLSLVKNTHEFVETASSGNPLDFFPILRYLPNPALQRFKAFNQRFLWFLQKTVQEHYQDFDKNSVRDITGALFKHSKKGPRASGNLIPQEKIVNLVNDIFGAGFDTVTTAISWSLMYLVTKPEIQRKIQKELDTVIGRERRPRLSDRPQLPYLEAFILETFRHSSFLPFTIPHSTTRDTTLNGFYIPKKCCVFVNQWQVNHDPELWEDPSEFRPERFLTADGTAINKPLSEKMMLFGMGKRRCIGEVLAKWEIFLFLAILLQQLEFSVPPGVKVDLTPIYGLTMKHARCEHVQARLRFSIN

Cytochrome P450 2D6 = Cytochrome P450 2D6 (Homo sapiens, UniProt P10635);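 also: CYP2D6 member of a cytochrome P450 panel assay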
[9] = target: T3, Replicative DNA helicase DnaB (Mycobacterium tuberculosis, UniProt P9WMR3); assay: DnaB intein splicing inhibitors, dose response, biochemical, cell-free fluorescence (AID 449749); format: functional
T3 sequence (P9WMR3 whole entry): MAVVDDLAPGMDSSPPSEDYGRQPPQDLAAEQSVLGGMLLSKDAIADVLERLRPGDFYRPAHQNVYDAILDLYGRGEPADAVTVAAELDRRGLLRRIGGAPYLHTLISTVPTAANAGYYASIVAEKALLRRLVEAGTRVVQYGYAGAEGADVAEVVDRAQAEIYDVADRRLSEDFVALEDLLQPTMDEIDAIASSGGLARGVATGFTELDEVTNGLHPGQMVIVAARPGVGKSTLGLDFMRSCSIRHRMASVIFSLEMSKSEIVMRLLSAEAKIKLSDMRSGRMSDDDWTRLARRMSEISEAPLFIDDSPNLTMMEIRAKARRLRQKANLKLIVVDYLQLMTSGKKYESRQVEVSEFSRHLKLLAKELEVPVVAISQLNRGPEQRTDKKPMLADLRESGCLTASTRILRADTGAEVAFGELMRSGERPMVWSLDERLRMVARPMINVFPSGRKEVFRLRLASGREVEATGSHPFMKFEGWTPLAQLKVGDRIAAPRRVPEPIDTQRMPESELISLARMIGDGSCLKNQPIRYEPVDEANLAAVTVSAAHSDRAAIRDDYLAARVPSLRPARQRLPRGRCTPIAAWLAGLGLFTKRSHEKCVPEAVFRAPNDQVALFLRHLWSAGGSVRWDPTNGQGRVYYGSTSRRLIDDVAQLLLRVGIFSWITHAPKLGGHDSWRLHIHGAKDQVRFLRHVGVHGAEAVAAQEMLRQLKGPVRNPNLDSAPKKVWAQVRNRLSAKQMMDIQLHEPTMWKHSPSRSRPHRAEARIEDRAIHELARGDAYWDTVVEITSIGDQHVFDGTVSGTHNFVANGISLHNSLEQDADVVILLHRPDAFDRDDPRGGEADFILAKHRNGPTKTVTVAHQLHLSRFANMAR

Protein RecA = target: T4, Protein RecA (Mycobacterium tuberculosis, UniProt P9WHJ3); assay: Fluorescence Cell-Free Homogeneous Dose Retest to Identify Inhibitors of RecA-Intein Splicing Activity. [Related pubchem assays (depositor defined):AID2097, AID2223, AID489010, AID492950]; format: functional
T4 sequence (P9WHJ3 whole entry): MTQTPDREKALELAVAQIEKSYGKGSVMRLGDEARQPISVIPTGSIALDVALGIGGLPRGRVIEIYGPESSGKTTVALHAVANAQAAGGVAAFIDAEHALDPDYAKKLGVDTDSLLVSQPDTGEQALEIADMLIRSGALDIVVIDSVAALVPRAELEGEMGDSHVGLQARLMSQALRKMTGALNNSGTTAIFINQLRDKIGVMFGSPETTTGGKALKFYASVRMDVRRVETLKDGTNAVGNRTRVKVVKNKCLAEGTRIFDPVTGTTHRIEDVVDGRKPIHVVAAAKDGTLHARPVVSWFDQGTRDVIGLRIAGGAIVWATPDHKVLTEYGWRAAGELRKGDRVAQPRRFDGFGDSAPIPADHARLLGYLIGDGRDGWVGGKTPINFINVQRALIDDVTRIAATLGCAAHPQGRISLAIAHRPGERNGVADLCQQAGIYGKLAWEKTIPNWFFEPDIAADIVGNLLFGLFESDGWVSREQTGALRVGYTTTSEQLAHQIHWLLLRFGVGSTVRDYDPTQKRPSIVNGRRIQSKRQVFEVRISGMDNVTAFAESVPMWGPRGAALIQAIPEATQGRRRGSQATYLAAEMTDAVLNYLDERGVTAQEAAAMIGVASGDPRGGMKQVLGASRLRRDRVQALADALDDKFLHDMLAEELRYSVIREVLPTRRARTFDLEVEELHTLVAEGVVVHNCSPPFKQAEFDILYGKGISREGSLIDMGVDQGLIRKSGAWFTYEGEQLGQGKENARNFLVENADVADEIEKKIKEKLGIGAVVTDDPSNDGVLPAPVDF

SUMO-activating enzyme [10] = target: T5, SUMO-activating enzyme (Homo sapiens, UniProt Q9UBT2); assay: blockers of UBC9-mediated SUMO conjugation – biochemical, AlphaScreen, SUMOylation inhibitor project, confirmation (AID 2018); format: functional
[11] = viability loss in THP-1 monocytes – THP-1 cells, cytotoxicity control for Vif-APOBEC3G degradation inhibitor project, dose response (AID 1117359); format: functional; conditions: THP-1
[12] = target: Induced myeloid leukemia cell differentiation protein Mcl-1 (Homo sapiens, UniProt Q07820); format: functional
SUMO-activating enzyme [13] = target: T5, SUMO-activating enzyme; assay: blockers of SAE1/SAE2–UBC9 SUMO transfer – biochemical, HTRF, uHTS, primary screen (AID 2006); format: protein-complex assay
Cytochrome P450 2C19 = Cytochrome P450 2C19 (Homo sapiens, UniProt P33261); assay: Cytochrome panel assay with activity outcomes. Panel member name: p450-cyp2c19 Compounds with AC50 equal or less than 10 uM are considered active; format: functional
[14] = target: Voltage-gated inwardly rectifying potassium channel KCNH2 (Homo sapiens, UniProt Q12809); conditions: Potency;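 also: confirmatory quantitative high-throughput screen measuring inhibition of hERG channel activity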
Vero = assay: cells; format: functional; conditions: Chlorocebus sabaeus
[15] = Luminescence Cell-Based Dose Retest to Confirm Inhibitors of Cancer Stem Cells. [Related pubchem assays (depositor defined):AID2717, AID2721]; format: functional; conditions: Homo sapiens
INS1 = assay: INS-1E survival protection against cytokine death – cell-based, luminescence, retest, dose response (AID 449756); format: functional; conditions: Rattus norvegicus;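 also: cell death triggered by IL-1 beta plus TNF-alpha plus IFN-gamma mixture; protective hits raise ATP signal compared with cytokine alone wells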
[16] = HEK-293T viability loss after treatment – luminescence, T-cell screen hits, cytotoxicity control for TCR NF-kB inhibitor project, dose response (AID 489026); format: functional, cell-based;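 also: cells exposed to compound about 14 hours before the viability readout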

Dual specificity protein kinase CLK1, sequence (P49759 whole entry): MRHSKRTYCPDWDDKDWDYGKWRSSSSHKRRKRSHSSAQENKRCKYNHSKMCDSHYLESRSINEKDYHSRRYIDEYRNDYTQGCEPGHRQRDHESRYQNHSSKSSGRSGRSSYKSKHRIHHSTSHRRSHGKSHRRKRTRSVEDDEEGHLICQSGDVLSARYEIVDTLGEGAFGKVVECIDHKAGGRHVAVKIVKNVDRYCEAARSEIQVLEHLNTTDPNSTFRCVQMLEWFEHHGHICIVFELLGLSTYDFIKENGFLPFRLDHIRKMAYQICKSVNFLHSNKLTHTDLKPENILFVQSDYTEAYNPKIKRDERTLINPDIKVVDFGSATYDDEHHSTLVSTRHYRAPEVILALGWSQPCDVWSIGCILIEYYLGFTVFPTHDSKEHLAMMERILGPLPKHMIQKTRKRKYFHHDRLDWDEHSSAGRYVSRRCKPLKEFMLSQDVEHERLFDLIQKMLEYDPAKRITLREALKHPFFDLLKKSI
Cytochrome P450 2C19, sequence (P33261 whole entry): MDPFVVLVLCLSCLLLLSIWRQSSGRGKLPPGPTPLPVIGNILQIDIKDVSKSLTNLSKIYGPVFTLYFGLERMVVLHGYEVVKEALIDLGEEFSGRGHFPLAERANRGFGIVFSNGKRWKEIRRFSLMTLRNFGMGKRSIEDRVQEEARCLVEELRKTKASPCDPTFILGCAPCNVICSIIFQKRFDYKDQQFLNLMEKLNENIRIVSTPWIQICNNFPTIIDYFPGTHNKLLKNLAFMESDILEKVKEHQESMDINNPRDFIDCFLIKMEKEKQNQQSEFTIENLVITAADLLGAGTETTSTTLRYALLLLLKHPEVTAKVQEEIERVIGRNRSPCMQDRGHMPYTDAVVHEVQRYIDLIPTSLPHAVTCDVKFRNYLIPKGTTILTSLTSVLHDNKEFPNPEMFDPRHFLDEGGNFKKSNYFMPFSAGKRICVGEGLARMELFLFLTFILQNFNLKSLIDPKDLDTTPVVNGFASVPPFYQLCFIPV
Cytochrome P450 2D6, sequence (P10635 whole entry): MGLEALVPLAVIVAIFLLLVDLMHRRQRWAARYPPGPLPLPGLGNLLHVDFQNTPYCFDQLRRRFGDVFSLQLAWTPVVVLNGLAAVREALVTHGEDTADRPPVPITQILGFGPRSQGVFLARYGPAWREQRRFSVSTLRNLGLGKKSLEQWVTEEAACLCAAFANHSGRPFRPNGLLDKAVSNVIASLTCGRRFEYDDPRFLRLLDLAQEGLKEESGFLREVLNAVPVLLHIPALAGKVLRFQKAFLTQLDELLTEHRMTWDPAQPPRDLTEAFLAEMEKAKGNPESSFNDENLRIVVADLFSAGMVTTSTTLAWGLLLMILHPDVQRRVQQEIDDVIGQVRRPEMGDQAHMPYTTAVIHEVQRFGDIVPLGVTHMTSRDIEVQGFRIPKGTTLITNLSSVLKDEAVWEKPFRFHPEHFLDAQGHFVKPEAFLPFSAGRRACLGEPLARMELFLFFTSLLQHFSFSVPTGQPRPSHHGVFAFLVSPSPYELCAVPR
Voltage-gated inwardly rectifying potassium channel KCNH2, sequence (Q12809 whole entry): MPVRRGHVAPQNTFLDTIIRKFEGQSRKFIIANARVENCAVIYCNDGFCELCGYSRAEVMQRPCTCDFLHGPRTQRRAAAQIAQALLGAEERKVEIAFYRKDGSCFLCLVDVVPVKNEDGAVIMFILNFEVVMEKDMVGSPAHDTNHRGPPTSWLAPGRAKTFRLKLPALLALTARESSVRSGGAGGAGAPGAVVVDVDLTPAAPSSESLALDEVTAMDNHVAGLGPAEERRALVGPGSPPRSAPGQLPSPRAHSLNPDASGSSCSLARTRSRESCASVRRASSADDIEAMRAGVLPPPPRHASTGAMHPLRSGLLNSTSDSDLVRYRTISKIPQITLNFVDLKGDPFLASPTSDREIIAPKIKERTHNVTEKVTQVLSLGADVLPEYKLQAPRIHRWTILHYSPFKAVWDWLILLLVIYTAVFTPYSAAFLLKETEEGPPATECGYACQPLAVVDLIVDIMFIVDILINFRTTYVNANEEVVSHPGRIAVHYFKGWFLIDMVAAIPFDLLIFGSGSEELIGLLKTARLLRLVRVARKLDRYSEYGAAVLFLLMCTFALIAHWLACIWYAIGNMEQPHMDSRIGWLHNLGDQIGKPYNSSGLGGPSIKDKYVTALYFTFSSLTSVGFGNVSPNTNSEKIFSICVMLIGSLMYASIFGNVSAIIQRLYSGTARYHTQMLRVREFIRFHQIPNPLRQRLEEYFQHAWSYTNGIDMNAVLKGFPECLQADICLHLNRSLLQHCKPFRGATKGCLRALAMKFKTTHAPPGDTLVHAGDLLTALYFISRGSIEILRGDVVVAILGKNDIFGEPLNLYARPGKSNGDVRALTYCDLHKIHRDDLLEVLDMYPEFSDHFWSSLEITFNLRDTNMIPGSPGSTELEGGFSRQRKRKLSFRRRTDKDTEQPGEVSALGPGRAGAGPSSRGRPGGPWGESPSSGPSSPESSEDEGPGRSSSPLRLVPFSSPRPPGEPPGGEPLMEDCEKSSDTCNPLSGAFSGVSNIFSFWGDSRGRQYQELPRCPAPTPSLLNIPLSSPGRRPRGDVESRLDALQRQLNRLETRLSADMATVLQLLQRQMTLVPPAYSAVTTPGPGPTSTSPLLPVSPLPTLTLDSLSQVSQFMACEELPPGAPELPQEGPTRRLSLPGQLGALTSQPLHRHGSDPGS
T5 sequence (Q9UBE0 whole entry): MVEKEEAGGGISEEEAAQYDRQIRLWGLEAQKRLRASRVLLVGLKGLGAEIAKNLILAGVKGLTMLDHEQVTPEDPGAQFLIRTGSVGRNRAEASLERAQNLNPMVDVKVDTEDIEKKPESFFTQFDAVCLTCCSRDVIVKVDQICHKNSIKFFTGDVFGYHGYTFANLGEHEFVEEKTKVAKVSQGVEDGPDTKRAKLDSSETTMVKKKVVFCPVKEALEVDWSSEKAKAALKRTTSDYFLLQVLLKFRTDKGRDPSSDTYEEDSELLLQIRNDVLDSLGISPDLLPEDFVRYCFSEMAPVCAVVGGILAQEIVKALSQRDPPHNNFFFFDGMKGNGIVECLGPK
T5 sequence (Q9UBT2 whole entry): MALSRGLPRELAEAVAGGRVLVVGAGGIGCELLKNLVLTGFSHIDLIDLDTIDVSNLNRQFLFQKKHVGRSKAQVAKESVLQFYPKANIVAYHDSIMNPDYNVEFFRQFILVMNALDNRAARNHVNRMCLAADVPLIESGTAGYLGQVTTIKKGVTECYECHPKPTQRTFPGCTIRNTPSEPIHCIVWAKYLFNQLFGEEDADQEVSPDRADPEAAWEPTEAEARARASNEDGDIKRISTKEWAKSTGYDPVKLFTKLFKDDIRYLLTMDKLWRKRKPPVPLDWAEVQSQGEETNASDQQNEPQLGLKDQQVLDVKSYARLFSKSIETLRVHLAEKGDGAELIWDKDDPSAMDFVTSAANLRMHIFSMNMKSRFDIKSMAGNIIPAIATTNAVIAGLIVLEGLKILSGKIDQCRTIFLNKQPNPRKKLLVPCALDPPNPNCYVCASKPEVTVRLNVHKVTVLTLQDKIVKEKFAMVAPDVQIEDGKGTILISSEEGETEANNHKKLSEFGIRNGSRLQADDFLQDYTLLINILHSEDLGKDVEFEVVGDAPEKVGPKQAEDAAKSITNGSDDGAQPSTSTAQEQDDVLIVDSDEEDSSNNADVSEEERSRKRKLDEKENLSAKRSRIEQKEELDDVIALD
Beta-2 adrenergic receptor, sequence (P07550 whole entry): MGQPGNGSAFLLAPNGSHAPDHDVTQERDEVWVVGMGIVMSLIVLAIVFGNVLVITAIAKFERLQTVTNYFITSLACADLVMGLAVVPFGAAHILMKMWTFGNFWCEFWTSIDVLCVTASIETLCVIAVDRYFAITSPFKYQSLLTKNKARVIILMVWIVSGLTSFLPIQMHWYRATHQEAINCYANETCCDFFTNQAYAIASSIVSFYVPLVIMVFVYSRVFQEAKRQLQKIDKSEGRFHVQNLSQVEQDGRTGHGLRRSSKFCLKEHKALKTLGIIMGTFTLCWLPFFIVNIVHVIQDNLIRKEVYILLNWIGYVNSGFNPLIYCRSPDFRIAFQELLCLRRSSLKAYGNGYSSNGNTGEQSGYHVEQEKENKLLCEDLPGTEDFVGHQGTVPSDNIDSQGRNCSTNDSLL
Cytochrome P450 3A4, sequence (P08684 whole entry): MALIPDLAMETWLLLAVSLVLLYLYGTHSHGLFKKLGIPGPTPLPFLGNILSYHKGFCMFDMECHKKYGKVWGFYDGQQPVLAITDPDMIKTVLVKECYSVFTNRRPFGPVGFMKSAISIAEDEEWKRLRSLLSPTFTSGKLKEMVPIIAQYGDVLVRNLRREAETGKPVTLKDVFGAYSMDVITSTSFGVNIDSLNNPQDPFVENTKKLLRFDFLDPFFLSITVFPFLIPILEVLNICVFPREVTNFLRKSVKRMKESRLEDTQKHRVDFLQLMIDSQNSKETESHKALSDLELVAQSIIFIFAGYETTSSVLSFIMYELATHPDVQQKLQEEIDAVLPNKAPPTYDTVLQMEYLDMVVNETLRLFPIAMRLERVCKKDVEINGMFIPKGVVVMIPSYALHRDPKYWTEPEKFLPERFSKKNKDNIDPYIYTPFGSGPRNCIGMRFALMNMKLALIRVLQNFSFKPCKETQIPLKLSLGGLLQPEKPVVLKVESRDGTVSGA
Photoreceptor-specific nuclear receptor, sequence (Q9Y5X4 whole entry, the tested form may be a part): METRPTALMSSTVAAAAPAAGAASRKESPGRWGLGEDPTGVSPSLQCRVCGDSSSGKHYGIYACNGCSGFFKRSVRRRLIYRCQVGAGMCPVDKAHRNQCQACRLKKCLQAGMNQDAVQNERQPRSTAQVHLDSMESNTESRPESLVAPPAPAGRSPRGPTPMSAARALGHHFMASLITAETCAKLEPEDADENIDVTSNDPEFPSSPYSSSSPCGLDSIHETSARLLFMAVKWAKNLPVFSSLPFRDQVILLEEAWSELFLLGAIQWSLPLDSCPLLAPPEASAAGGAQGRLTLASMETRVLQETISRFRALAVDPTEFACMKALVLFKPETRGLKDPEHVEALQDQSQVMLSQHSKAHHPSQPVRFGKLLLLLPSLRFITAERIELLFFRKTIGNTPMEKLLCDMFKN

## NC(=O)CC(NC(=O)Cc1ccc(Br)cc1)c1ccc(N2CCN(c3ccccn3)CC2)c([N+](=O)[O-])c1 (centres undefined)
[1]
  EC50: 12.2 µM (inactive)

## CC(=O)Nc1ccc(S(=O)(=O)NNc2cccc(C)c2)cc1
[2]
  IC50: > 80 µM (inactive)
[3]
  EC50: > 50 µM (active)
[4]
  IC50: 35.9 µM (active)

## c1nc(NCC2CCCC2)c2cc(-c3ccc4c(c3)OCO4)ccc2n1
[5]
  AC50: 0.00361 µM (active)

## CSc1ccc(C(=O)C2CCCN(Cc3cccn3-c3cccnc3)C2)cc1 (centres undefined)
[1]
  EC50: 0.566 µM (active)

## O=C(CSc1nnnn1-c1ccc(O)cc1)Nc1ccc(N2CCOCC2)c(Cl)c1
[5]
  AC50: 8.48 µM (active)
[6]
  AC50: 8.12 µM (active)
[7]
  IC50: 0.488 µM (active)

## COc1cc(-c2nnc(SC/C=C/c3ccccc3)n2N)cc(OC)c1OC
[8]
  EC50: > 260 µM (inconclusive)
Cytochrome P450 3A4
  AC50: 31.6 µM (inconclusive)
Cytochrome P450 1A2
  AC50: 14.1 µM (inconclusive)
Cytochrome P450 2D6
  AC50: inconclusive

## Clc1ccc(CNc2nccc(-c3ccc4c(c3)OCO4)n2)cc1Cl
[5]
  AC50: < 0.00195 µM (active)

## CCc1ccc(S(=O)(=O)/N=C2\C=CC(=O)c3ccccc32)cc1
[9]
  AC50: 1.15 µM (active)
Protein RecA
  EC50: 0.643 µM (active)
SUMO-activating enzyme [10]
  IC50: 4.93 µM (active)
[11]
  CC50: 23.7 µM (active)
[12]
  IC50: 3.11 µM (active)
SUMO-activating enzyme [13]
  IC50: 35.4 µM (active)

## Cc1ccc(C(=O)N/N=C/c2ccc(S(=O)(=O)[O-])o2)c(Cl)c1.[Na+]
Cytochrome P450 2C19
  AC50: inconclusive
Cytochrome P450 2D6
  AC50: inconclusive

## c1ccc(SCCSc2ccccc2)cc1
[14]
  AC50: 28.2 µM (inconclusive)

## CC(C)(C)c1cc(C=C(C#N)C#N)cc(C(C)(C)C)c1O [TYRPHOSTIN A9]
[14]
  AC50: 15.8 µM (inconclusive)
Vero
  CC50: 1.37 µM (active)
[15]
  AC50: 1.3 µM (active)
INS1
  AC50: 0.928 µM (active)
Cytochrome P450 2C19; read-out: AC50
  AC50: 7.94 µM (inconclusive)
[16]
  IC50: > 80 µM (inactive)
